From patent US20250360164A1, “METHOD FOR REDUCING THE INCIDENCE OF PECTORAL MYOPATHY IN POULTRY FEED” (CAN TECHNOLOGIES, INC., priority 2017, published 2025)

Key:
[1] = nitrate dosage up to at least 400 mg/kg body weight, starter and grower phases
Description: The amount of one or more nitrates, one or more nitrites, or a mixture thereof fed to the poultry in the feed compositions and/or methods described herein can also be expressed in mg of nitrates and/or nitrites per kg body weight of the poultry. In some embodiments, the nitrate/nitrite amount in the feed composition is less than 500 mg/kg, less than 450 mg/kg, less than 400 mg/kg, or less than 300 mg/kg. In some embodiments, the nitrate/nitrate amount in the feed composition is in the range of 10 to 500 mg/kg, 10 to 400 mg/kg; 10 to 300 mg/kg; 25 to 400 mg/kg; 25 to 200 mg/kg; 50 to 400 mg/kg; 50 to 150 mg/kg; or 100 to 400 mg/kg.

wooden breast = conditions: previous state-of-the-art, poster 450 P, 2015; cited from earlier work

| Compound | effect on growth [1] | nitrate poisoning [1] | reduction of wooden breast (wooden breast) |
| --- | --- | --- | --- |
| O=[N+]([O-])[O-].O=[N+]([O-])[O-].[Ca+2] [calcium nitrate] | does not negatively affect growth | does not cause nitrate poisoning | – |
| N=C(N)NCCC[C@H](N)C(=O)O [arginine] | – | – | inefficient in providing effective reduction |
